# Results taken from patent publication US10745382B2 (BRISTOL-MYERS SQUIBB COMPANY, priority 2015, dated 2020).
# pIC50: −log10 of the molar value.
# Biological target: T1, PD-1/PD-L1 (Homo sapiens, UniProt Q9NZQ7)
# T1 construct: made in house; host or cells: HEK293T
# Test: PD-1/PD-L1 Homogenous Time-Resolved Fluorescence (HTRF) binding assay
# Conditions: PD-L1-His 10 nM, PD-1-Ig 20 nM; value given as range class; read-out: Range or IC50
# Summary of the method: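 Binding was measured by HTRF in dPBS with 0.1% BSA and 0.05% Tween-20. Detection used europium cryptate anti-Ig (1 nM final) and APC anti-His (20 nM final) added over the binding reaction.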
# T1 sequence (Q9NZQ7 with tags, fused parts or gaps): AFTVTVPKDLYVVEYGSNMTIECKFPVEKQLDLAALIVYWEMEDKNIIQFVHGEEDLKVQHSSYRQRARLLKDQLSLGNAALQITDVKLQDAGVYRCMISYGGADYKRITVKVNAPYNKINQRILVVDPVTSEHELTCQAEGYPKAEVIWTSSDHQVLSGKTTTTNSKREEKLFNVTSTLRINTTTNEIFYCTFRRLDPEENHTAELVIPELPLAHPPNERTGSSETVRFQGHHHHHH
row,Compound,pIC50
1,"Cc1c(COc2cc(OCc3cncc(C#N)c3)c(CNC(CO)CO)cc2Cl)cccc1-c1cccc(OCCCN2CCC[C@H](CO)C2)c1C [Example 2296, (S)-5-((4-chloro-2-(((1,3-dihydroxypropan-2-yl)amino)methyl)-5-((3′-(3-(3-(hydroxymethyl)piperidin-1-yl)propoxy)-2,2′-dimethyl-[1,12′-biphenyl]-3-yl)methoxy)phenoxy)methyl)nicotinonitrile]",8.00 to 9.68
2,"Cc1c(COc2cc(OCc3cncc(C#N)c3)c(CN3CCCC[C@H]3C(=O)O)cc2Cl)cccc1-c1cccc(OCCCN2CCC(CO)(C(=O)O)C2)c1C (single isomer, unassigned) [Example 1066]",8.00 to 9.68
3,"Cc1c(COc2cc(OCc3cncc(C#N)c3)c(CN[C@](C)(CO)C(=O)O)cc2Cl)cccc1-c1cccc(OCCCN2CCC(O)(CO)CC2)c1Cl [Example 2061, (R)-2-((5-chloro-4-((2′-chloro-3′-(3-(4-hydroxy-4-(hydroxymethyl)piperidin-1-yl)propoxy)-2-methyl-[1,1′-biphenyl]-3-yl)methoxy)-2-((5-cyanopyridin-3-yl)methoxy)benzyl)amino)-3-hydroxy-2-methylpropanoic Acid]",8.00 to 9.68
4,"Cc1c(OCCCN2CC[C@@H](O)C2)cccc1-c1cccc(COc2cc(OCC(N)=O)c(CNC(CO)CO)cc2Cl)c1Cl [Example 2316, (R)-2-(4-chloro-5-((2-chloro-3′-(3-(3-hydroxypyrrolidin-1-yl)propoxy)-2′-methyl-[1,1′-biphenyl]-3-yl)methoxy)-2-(((1,3-dihydroxypropan-2-yl)amino)methyl)phenoxy)acetamide]",8.00 to 9.68
5,"Cc1c(OCCCN2CC[C@@H](O)C2)cccc1-c1cccc(COc2cc(OCc3cncc(C#N)c3)c(CN(CCc3cncc(C#N)c3)C(CO)CO)cc2Cl)c1Cl [Example 2312, (R)-5-(2-((5-chloro-4-((2-chloro-3′-(3-(3-hydroxypyrrolidin-1-yl)propoxy)-2′-methyl-[1,1′-biphenyl]-3-yl)methoxy)-2-((5-cyanopyridin-3-yl)methoxy)benzyl)(1,3-dihydroxypropan-2-yl)amino)ethyl)nicotinonitrile]",8.00 to 9.68
6,"Cc1c(COc2cc(OCc3cncc(C#N)c3)c(CNC(CO)CO)cc2Cl)cccc1-c1cccc(NC(=O)c2ncccc2CO)c1C [Example 2340, N-(3′-((2-chloro-5-((5-cyanopyridin-3-yl)methoxy)-4-(((1,3-dihydroxypropan-2-yl)amino)methyl)phenoxy)methyl)-2,2′-dimethyl-[1,1′-biphenyl]-3-yl)-3-(hydroxymethyl)picolinamide]",7.00 to 8.00
7,"Cc1c(COc2cc(OCc3cncc(C#N)c3)c(CNC(C)(CO)CO)cc2Cl)cccc1-c1cccc(OCCC(=O)NC[C@H](O)CO)c1Cl [Example 2118, (S)-3-((2-chloro-3′-((2-chloro-5-((5-cyanopyridin-3-yl)methoxy)-4-(((1,3-dihydroxy-2-methylpropan-2-yl)amino)methyl)phenoxy)methyl)-2′-methyl-[1,1′-biphenyl]-3-yl)oxy)-N-(2,3-dihydroxypropyl)propanamide]",8.00 to 9.68
8,"Cc1c(COc2cc(OCc3cncc(C#N)c3)c(CNC(C)(CO)CO)cc2Cl)cccc1-c1cccc(OCCCN2CCC(CO)(C(=O)O)C2)c1Cl (stereo not drawn) [Example 1118, 1-(3-((2-chloro-3′-((2-chloro-5-((5-cyanopyridin-3-yl)methoxy)-4-(((1,3-dihydroxy-2-methylpropan-2-yl)amino)methyl)phenoxy)methyl)-2′-methyl-[1,1′-biphenyl]-3-yl)oxy)propyl)-3-(hydroxymethyl)pyrrolidine-3-carboxylic Acid]",7.00 to 8.00
9,"Cc1c(COc2cc(OCc3cncc(C#N)c3)c(CN[C@@](C)(CO)C(=O)O)cc2Cl)cccc1-c1cccc(OCCCN2CCC(CO)CC2)c1C [Example 2275, (S)-2-((5-chloro-2-((5-cyanopyridin-3-yl)methoxy)-4-((3′-(3-(4-(hydroxymethyl)piperidin-1-yl)propoxy)-2,2′-dimethyl-[1,1′-biphenyl]-3-yl)methoxy)benzyl)amino)-3-hydroxy-2-methylpropanoic Acid]",8.00 to 9.68
10,"Cc1c(COc2cc(OCc3cncc(C#N)c3)c(CNC(CO)CO)cc2Cl)cccc1-c1cccc(OCCCN2CCC(O)(CO)CC2)c1Cl [Example 2063, 5-((4-chloro-5-((2′-chloro-3′-(3-(4-hydroxy-4-(hydroxymethyl)piperidin-1-yl)propoxy)-2-methyl-[1,1′-biphenyl]-3-yl)methoxy)-2-(((1,3-dihydroxypropan-2-yl)amino)methyl)phenoxy)methyl)nicotinonitrile]",5.70 to 7.00
11,"Cc1c(COc2cc(OCc3cncc(C#N)c3)c(CN[C@H](CO)C(=O)O)cc2Cl)cccc1-c1cccc(OCCCN2CCC(CO)(C(=O)O)C2)c1C (stereo partly drawn) [Example 1052, 1-(3-((3′-((4-((((R)-1-carboxy-2-hydroxyethyl)amino)methyl)-2-chloro-5-((5-cyanopyridin-3-yl)methoxy)phenoxy)methyl)-2,2′-dimethyl-[1,1′-biphenyl]-3-yl)oxy)propyl)-3-(hydroxymethyl)pyrrolidine-3-carboxylic Acid]",8.00 to 9.68
12,"Cc1c(COc2cc(OCc3cncc(C#N)c3)c(CN3CCCC[C@H]3C(=O)O)cc2Cl)cccc1-c1ccc2c(c1)OC(CCN1CC[C@@H](O)C1)CO2 (mixture of isomers) [Example 1504, (2S)-1-(5-chloro-2-((5-cyanopyridin-3-yl)methoxy)-4-((3-(3-(2-((R)-3-hydroxypyrrolidin-1-yl)ethyl)-2,3-dihydrobenzo[b][1,4]dioxin-6-yl)-2-methylbenzyl)oxy)benzyl)piperidine-2-carboxylic acid]",8.00 to 9.68
13,"Cc1c(COc2cc(OCc3cncc(C#N)c3)c(CN(CC3CC3)C(C)(CO)CO)cc2Cl)cccc1-c1cccc(OCCCN2CC[C@@H](O)C2)c1Cl [Example 2114, (R)-5-((4-chloro-5-((2′-chloro-3′-(3-(3-hydroxypyrrolidin-1-yl)propoxy)-2-methyl-[1,1′-biphenyl]-3-yl)methoxy)-2-(((cyclopropylmethyl)(1,3-dihydroxy-2-methylpropan-2-yl)amino)methyl)phenoxy)methyl)nicotinonitrile]",8.00 to 9.68
14,"Cc1c(OCCCN2CCCCC2)cccc1-c1cccc(COc2cc(OCc3cncc(C#N)c3)c(CN3CCCC[C@H]3C(=O)O)cc2Cl)c1Cl [Example 2306, (S)-1-(5-chloro-4-((2-chloro-2′-methyl-3′-(3-(piperidin-1-yl)propoxy)-[1,1′-biphenyl]-3-yl)methoxy)-2-((5-cyanopyridin-3-yl)methoxy)benzyl)piperidine-2-carboxylic Acid]",8.00 to 9.68

# Results, then the compound that gave them:
row,pIC50,Compound
1,7.00 to 8.00,"Cc1c(COc2cc(OCc3cncc(C#N)c3)c(CN3CCCC[C@H]3C(=O)O)cc2Cl)cccc1-c1cccc(C(=O)NCCN2CC[C@@H](O)C2)c1C [Example 3060, (S)-1-(5-chloro-2-((5-cyanopyridin-3-yl)methoxy)-4-((3′-((2-((R)-3-hydroxypyrrolidin-1-yl)ethyl)carbamoyl)-2,2′-dimethyl-[1,1′-biphenyl]-3-yl)methoxy)benzyl)piperidine-2-carboxylic Acid]"
2,8.00 to 9.68,"Cc1c(COc2cc(OCc3cncc(C#N)c3)c(CN3CCCC[C@H]3C(=O)O)cc2Cl)cccc1-c1cccc(OCCCN2CCOC(c3ccccc3)C2)c1C (stereo partly drawn) [Example 3056, (2S)-1-(5-chloro-2-((5-cyanopyridin-3-yl)methoxy)-4-((2,2′-dimethyl-3′-(3-(2-phenylmorpholino)propoxy)-[1,1′-biphenyl]-3-yl)methoxy)benzyl)piperidine-2-carboxylic Acid]"
3,8.00 to 9.68,"Cc1ccc(COc2cc(OCc3cccc(-c4cccc(OCCCN5CC[C@@H](O)C5)c4C)c3C)c(Cl)cc2CNC(CO)CO)cc1C [Example 4505, (R)-2-((5-chloro-2-((3,4-dimethylbenzyl)oxy)-4-((3′-(3-(3-hydroxypyrrolidin-1-yl)propoxy)-2,2′-dimethyl-[1,1′-biphenyl]-3-yl)methoxy)benzyl)amino)propane-1,3-diol]"
4,8.00 to 9.68,"Cc1c(COc2cc(OCc3cncc(C#N)c3)c(CN(CCO)CCO)c(C)c2Cl)cccc1-c1cccc(OCCCN2CC[C@@H](O)C2)c1C [Example 4105, (R)-5-((2-((bis(2-hydroxyethyl)amino)methyl)-4-chloro-5-((3′-(3-(3-hydroxypyrrolidin-1-yl)propoxy)-2,2′-dimethyl-[1,1′-biphenyl]-3-yl)methoxy)-3-methylphenoxy)methyl)nicotinonitrile]"
5,8.00 to 9.68,"Cc1c(COc2cc(OCc3cncc(C#N)c3)c(CN3CCCCC3(C)C(=O)O)cc2Cl)cccc1-c1cccc(OCCCN2CC[C@@H](O)C2)c1C (stereo partly drawn) [Example 3068, 1-(5-chloro-2-((5-cyanopyridin-3-yl)methoxy)-4-((3′-(3-((R)-3-hydroxypyrrolidin-1-yl)propoxy)-2,2′-dimethyl-[1,1′-biphenyl]-3-yl)methoxy)benzyl)-2-methylpiperidine-2-carboxylic Acid]"
6,5.70 to 7.00,"CCN(CC)C(=O)c1cccc(-c2cccc(COc3cc(OCc4cncc(C#N)c4)c(CN4C[C@H](O)C[C@H]4C(=O)O)cc3Cl)c2C)c1C [Example 4042, (2S,4R)-1-(5-chloro-2-((5-cyanopyridin-3-yl)methoxy)-4-((3′-(diethylcarbamoyl)-2,2′-dimethyl-[1,1′-biphenyl]-3-yl)methoxy)benzyl)-4-hydroxypyrrolidine-2-carboxylic Acid]"
7,7.00 to 8.00,"CCN(CC)C(=O)c1cccc(-c2cccc(COc3cc(OCc4cncc(C#N)c4)c(CN4C[C@@H](O)C[C@H]4C(=O)O)cc3Cl)c2C)c1C [Example 4043, (2S,4S)-1-(5-chloro-2-((5-cyanopyridin-3-yl)methoxy)-4-((3′-(diethylcarbamoyl)-2,2′-dimethyl-[1,1′-biphenyl]-3-yl)methoxy)benzyl)-4-hydroxypyrrolidine-2-carboxylic Acid]"
